Results reported in US8846670B2, “1,2,3,4-tetrahydro-pyrimido(1,2-a)pyrimidin-6-one derivatives, preparation thereof, and pharmaceutical use thereof” (priority 2009, dated 2014).

Tests used:
[1] = system: AKT protein phosphorylated on serine 473 (P-AKT-S473) in PC3 human prostate carcinoma line; experiment: Study of pAKT expression in PC3 human prostate carcinoma cells measured by the MSD Multi-spot Biomarker Detection technique (Test B); type: cell-based; settings: MSD sandwich immunoassay, 1 to 2 h incubation, absolute IC50, mean of 2 experiments
Procedure: The inhibitory activity of the molecules on AKT phosphorylation is measured either by western blotting using the technique described below, or by the MSD Multi-spot Biomarker detection technique from Meso Scale Discovery also described below.
Study of pAKT Expression in PC3Human Prostate Carcinoma Cells Measured by the MSD Multi-Spot Biomarker Detection Technique from Meso Scale Discovery (Test B):
The primary antibody specific for P-AKT-S473 (Kit #K151CAD) is coated onto an electrode in each well of the 96-well plates of the MSD kit: after the addition of a protein lysate to each well, the signal is visualised by adding a secondary detection antibody labelled with an electrochemiluminescent compound. The procedure followed is that described in the kit.
On day 2, the cells are incubated in the presence or absence of the test products for 1 to 2 h at 37° C. in the presence of 5% of CO2. The molecules, diluted in dimethyl sulphoxide (DMSO Sigma #D2650), are added from a 20-times concentrated stock solution, the final percentage of DMSO being 0.1%.
After this incubation, the cells are lysed for the preparation of the proteins. […] At this stage, the plates containing the lysates can be frozen at −20° C. or at −80° C.
The wells of the 96-well plates of the MSD kit are saturated for 1 h at ambient temperature with the blocking solution of the MSD kit. Four washes are carried out with 150 μl of Tris Wash Buffer of the MSD kit. The lysates previously prepared are transferred into the 96-well multi-spot plates of the MSD kit and incubated for 1 h at ambient temperature, with shaking. Four washes are carried out with 150 μl of Tris Wash Buffer of the MSD kit. 25 μl of the MSD sulfo-tag detection antibody solution are added to the wells and incubated for 1 h at ambient temperature, with shaking. Four washes are carried out with 150 μl of Tris Wash Buffer of the MSD kit. 150 μl of Read Buffer of the MSD kit are added to the wells and the plates are read immediately on the S12400 instrument from Meso Scale Discovery.
The instrument measures a signal for each well. Wells without cells and containing the lysis buffer serve to determine the background noise that will be subtracted from all the measurements (min). The wells containing cells in the absence of product and in the presence of 0.1% DMSO are considered to be the 100% signal (max). The percentage inhibition is calculated for each concentration of test product according to the following formula: (1−((test−min)/(max−min)))×100.
2 independent experiments make it possible to calculate the mean of the IC50 values.

[2] = system: translocation of the LC3 protein in Hela GFP-LC3 cells; experiment: Study of the translocation of the LC3 protein in Hela human cells, measured by image analysis cytometry (Test C, autophagy); type: cell-based; settings: 2 h, Hela GFP-LC3 cells with LC3 granulations, EBSS + 10 μM hydroxychloroquine, absolute IC50
Procedure: The inhibitory activity of the molecules on autophagy is measured by the translocation of the LC3 protein from the cytoplasm to the autophagosomes. For this, Hela cells were transfected with a vector encoding the chimeric protein GFP-LC3. A Hela clone stably expressing the GFP-LC3 protein was selected.
Study of the Translocation of the LC3 Protein in Hela Human Cells, Measured by Image Analysis Cytometry (Test C):
On day 2, the cells are washed twice with EBSS (Sigma #E3024). The cells are then incubated in EBSS, 10 μM of hydroxychloroquine and test products for 2 h at 37° C. in the presence of 5% CO2. The molecules are diluted in dimethyl sulphoxide (DMSO Sigma #D2650), the final DMSO percentage being 0.1%.
After this incubation, the cells are fixed with 4% paraformaldehyde (Sigma #HT501128 4 L) for 10 min. […] The 96-well plates are then read with the iCyte image analysis cytometer (Compucyte).
Two independent experiments make it possible to calculate the mean of the IC50 values.

[3] = Homo sapiens, PC-3, P-AKT-S473 in PC3 cells

Structure (SMILES)	IC50 [1, 3]	IC50 ([2]; Homo sapiens, HeLa)	IC50 ([1]; P-AKT-S473 in PC3 cells)	IC50 [2]
O=c1cc(N2CCOCC2)nc2n1CC[C@@H](C(F)(F)F)N2Cc1cccc(F)c1 [Example 23, (8S)-9-(3-fluorobenzyl)-2-(morpholin-4-yl)-8-(trifluoromethyl)-6,7,8,9-tetrahydro-4H-pyrimido[1,2-a]pyrimidin-4-one]	0.024 µM	0.663 µM		
Cc1ccc(N2c3nc(N4CCOCC4)cc(=O)n3CC[C@H]2C(F)(F)F)cc1 [Example 21, (8S)-9-(4-methylphenyl)-2-(morpholin-4-yl)-8-(trifluoro-methyl)-6,7,8,9-tetrahydro-4H-pyrimido[1,2-a]pyrimidin-4-one]	0.024 µM	0.157 µM		
O=c1cc(N2CCOCC2)nc2n1CC[C@@H](C(F)(F)F)N2Cc1ccccc1Cl [Example 22, (8S)-9-(2-chlorobenzyl)-2-(morpholin-4-yl)-8-(trifluoro-methyl)-6,7,8,9-tetrahydro-4H-pyrimido[1,2-a]pyrimidin-4-one]	0.023 µM	0.785 µM		
O=C(c1ccccc1F)N1c2nc(N3CCOCC3)cc(=O)n2CC[C@H]1C(F)(F)F [Example 28, (8S)-9-[(2-fluorophenyl)carbonyl]-2-(morpholin-4-yl)-8-(trifluoromethyl)-6,7,8,9-tetrahydro-4H-pyrimido[1,2-a]pyrimidin-4-one]	0.033 µM	> 10 µM		
O=c1cc(N2CCOCC2)nc2n1CC[C@@H](C(F)(F)F)N2CCc1cccc(F)c1 [Example 40, (8S)-9-[2-(3-fluorophenyl)ethyl]-2-(morpholin-4-yl)-8-(trifluoromethyl)-6,7,8,9-tetrahydro-4 H-pyrimido[1,2-a]pyrimidin-4-one]	0.003 µM	0.082 µM		
O=c1cc(N2CCOCC2)nc2n1CC[C@@H](C(F)(F)F)N2c1ccc(Cl)cc1 [Example 36, (8S)-9-(4-chlorophenyl)-2-(morpholin-4-yl)-8-(trifluoro-methyl)-6,7,8,9-tetrahydro-4H-pyrimido[1,2-a]pyrimidin-4-one]	0.018 µM	0.157 µM		
O=C(c1ccc(F)cc1F)N1c2nc(N3CCOCC3)cc(=O)n2CC[C@H]1C(F)(F)F [Example 44, (8S)-9-[(2,4-difluorophenyl)carbonyl]-2-(morpholin-4-yl)-8-(trifluoromethyl)-6,7,8,9-tetrahydro-4 H-pyrimido[1,2-a]pyrimidin-4-one]	0.108 µM	> 1 µM		
O=c1cc(N2CCOCC2)nc2n1CC[C@@H](C(F)(F)F)N2c1ccc(C(F)(F)F)cc1 [Example 37, (8S)-2-(morpholin-4-yl)-8-(trifluoromethyl)-9-[4-(trifluoro-methyl)phenyl]-6,7,8,9-tetrahydro-4H-pyrimido[1,2-a]pyrimidin-4-one]	0.018 µM	0.27 µM		
CC(c1ccccc1F)N1c2nc(N3CCOCC3)cc(=O)n2CC[C@H]1C(F)(F)F (single isomer, unassigned) [Example 39, (8S)-9-[(1R or 1S)-1-(2-fluorophenyl)ethyl]-2-(morpholin-4-yl)-8-(trifluoromethyl)-6,7,8,9-tetrahydro-4 H-pyrimido[1,2-a]pyrimidin-4-one]			0.005 µM	0.237 µM
COc1cccc(CCN2c3nc(N4CCOCC4)cc(=O)n3CC[C@H]2C(F)(F)F)c1 [Example 25]	0.007 µM	0.038 µM		
O=c1cc(N2CCOCC2)nc2n1CC[C@@H](C(F)(F)F)N2Cc1cc(F)cc(F)c1 [Example 29, (8S)-9-(3,5-difluorobenzyl)-2-(morpholin-4-yl)-8-(trifluoro-methyl)-6,7,8,9-tetrahydro-4H-pyrimido[1,2-a]pyrimidin-4-one]	0.022 µM	> 1 µM		
COc1cccc(CN2c3nc(N4CCOCC4)cc(=O)n3CC[C@H]2C(F)(F)F)c1 [Example 26, (8S)-9-(3-methoxybenzyl)-2-(morpholin-4-yl)-8-(trifluoromethyl)-6,7,8,9-tetrahydro-4H-pyrimido[1,2-a]pyrimidin-4-one]	0.018 µM	0.27 µM		
